From patent US20130040291A1, “Detection and Quantification of Cellular Stress Response Resolution Pathway Expression and Functionality and the Effects of Agents or Conditions Thereupon” (priority 2011, published 2013)

Legend:
CDNR4 cells [1] = assay: Midway cloning efficiency (mCE), pre-calibrated stress conditions pro-survival pathway function; format: cell-based, murine; details: ENU 20 micrograms/ml 1 hour, 2 weeks (day 14) post-exposure
Source text: mCE procedure #2 for cells that grow attached to a surface or basement membrane and/or that have the following growth characteristics when grown in tissue culture. The second method is novel and is recommended for use with epithelial cells, cells that form tight junctions, cells that produce mucinous material during in vitro cell culture, and/or cells that attach to a basement membrane. The latter characteristics are typical of epithelial cells but are not unique to this cell type alone.
This procedure is used to obtain an accurate cell count in vials of very dilute cells that are used for plating cloning efficiency plates. […]
For this procedure, the cell aliquot that was set aside during the initial cell counting is divided into 2 equal groups and diluted as follows. […] Approximately 12 to 15 hours later, the average number of cells per milliliter on the 6 or 12 well plates for both groups A and B is determined using light microscopy to visualize and count the cells. […] Viable cells are counted; dead cells or cell fragments are not counted. […] The final cloning efficiency is determined using the formula presented above (see phase 3 step 5). […]

CDNR4 cells [2] = assay: Determination of the SRID-50% level of 6-TG (calibrated stress conditions); format: cell-based, murine
Description: The calibrated stress conditions and the SRID-x % level are determined ideally using parental, control, or vehicle-exposed cells. This portion of the assay requires that several variables, including cell plating density, calibrated stress conditions level, and duration of stress conditions exposure be optimized simultaneously. These variables are interdependent such that each affects the outcome of the other, thereby making this portion of the assay one of the most critical. To achieve high sensitivity for detection of assay endpoints, it is important that the maximum number of cells be evaluated; however, optimal calibrated stress conditions are achieved at relatively low cell plating densities. In addition, cell plating densities and the SKID-x % level of stress inducing agent chosen for use in the assay must be such that fewer than one positive endpoint per well occurs in the assay. Using cell survival as an example, if multiple surviving cell clones are identified in the same well(s) during an experiment, then the cell plating density must be reduced and/or the SRID-x % level must be increased so that the frequency of occurrence of surviving clones is reduced to less than one per well. Thus, optimization of these variables is necessary.
Pilot studies that evaluate a range of cell plating densities and a range of calibrated stress conditions levels for the stress inducing agent of choice are used and are applied to untreated, control or parental cells. It is advisable to use a low plating density that results in rapid expression of stress resolution pathways (within 3 to 4 days where possible), or as quickly as possible after calibrated stress conditions exposure. In spite of potentially significant differences between cells of different types from different tissues and from different species, preliminary results from the SR assay support the conclusion that the optimal plating density for many cell types falls within a predictable range. […] These values can serve as starting points for empirical determination of the optimal cell plating density for the cells of interest to be used in the assay.
After estimating the optimal cell plating density, dose response curves are generated for the calibrated stress conditions agent of interest. For experiments in which cell survival is the phenotype of interest, work with the assay completed to date supports the conclusion that calibrated stress conditions levels that reduce expression of pro-survival pathways to a level that results in survival of one or fewer clones in 50% of the wells of a 96 well plate (defined as the SRID-50%) is the optimal level for assessment of damage avoidance pro-survival pathways. Use of these levels also results in a sufficiently robust expression of damage tolerance paths to make it possible to evaluate differences or changes in expression of these pathways between cell types and/or between differing exogenous exposures. Because cell plating density and level of calibrated stress inducing agent are inter-dependent, it may be necessary to perform several pilot studies using differing cell plating densities and a range of stress-response inducing levels to find the optimal combination of use with the cell type of interest in the assay.
There are two limits associated with Poisson distribution principles that must be considered in selecting the SRID-x % level of stress inducing agent. First, stress induction levels that result in a response frequency, for the response type of interest, that is near or equal to 100% of the sites being evaluated should be avoided and the same considerations are true for stress induction levels resulting in responses frequencies near or equal to 0%. The SR assay cannot accurately quantify response frequencies near 100% or near 0%, and this limitation forms the one of the factors affecting the selection of the SRID-x % level. […]

## CCN(N=O)C(N)=O [ENU, ethylnitrosourea]
CDNR4 cells [1]
  mCE (midway cloning efficiency): 34.2%
CDNR4 cells [2]; ENU 20 micrograms/ml 1 hour, 2 weeks earlier, 600 cells per well, stress agent 6-TG
  SRID-50% of ENU-exposed cells: 2.5 micrograms/ml
CDNR4 cells [2]; ENU-exposed vs unexposed CDNR4 cells, from SRID-50% levels
  reduction in the functionality of pro-survival cellular stress response pathways: 20 fold
CDNR4 cells [2]; pre-exposure 20 micrograms ENU 1 hour, tested two weeks later, 6-TG for 4 days
  SRID-50% level of ENU-exposed CDNR4 cells: 2.5 micrograms 6-TG
